Converted amounts (≈) assume the structure as drawn.
Tests used:
Assay in all cases: MIC panel of challenge pathogens (CLSI)
Type in all cases: cell-based
[1] = system: Staphylococcus aureus ATCC43300; conditions: Staphylococcus aureus ATCC43300
In short: (§1)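 Broth microdilution per CLSI guidelines. Final inoculum 2-8×10^5 CFU/ml, compounds serially two-fold diluted from 128 mg/L top concentration. Incubated in the dark at 30-37° C for 24-48 h, aerobic or anaerobic as appropriate. MIC read visually as 100% inhibition endpoint; MIC50 and MIC80 also reported.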

[2] = system: Staphylococcus aureus EUP MRSA004; conditions: EUPMRSA004, Staphylococcus aureus EUP MRSA004
In short: as §1

[3] = system: Staphylococcus aureus AUR60 7005; conditions: AUR607005, Staphylococcus aureus AUR60 7005
In short: as §1

[4] = system: Enterococcus faecalis ATCC29212; conditions: Enterococcus faecalis ATCC29212
In short: as §1

[5] = system: Staphylococcus aureus NRS383; conditions: Staphylococcus aureus NRS383
In short: as §1

[6] = system: Staphylococcus aureus AUR131 007035; conditions: AUR131007035, Staphylococcus aureus AUR131 007035
In short: as §1

[7] = system: Staphylococcus aureus NRS384; conditions: Staphylococcus aureus NRS384
In short: as §1

[8] = system: Staphylococcus aureus AUR58 7005; conditions: AUR587005, Staphylococcus aureus AUR58 7005
In short: as §1

[9] = system: Staphylococcus epidermidis NRS122; conditions: Staphylococcus epidermidis NRS122
In short: as §1

[10] = system: Staphylococcus aureus NRS382; conditions: Staphylococcus aureus NRS382
In short: as §1

[11] = system: Enterococcus faecalis ATCC51299; conditions: Enterococcus faecalis ATCC51299
In short: as §1

[12] = system: Staphylococcus aureus NRS2 (ATCC700698); conditions: Staphylococcus aureus NRS2 (ATCC700698)
In short: as §1

[13] = system: Staphylococcus aureus EUP MRSA002; conditions: EUPMRSA002, Staphylococcus aureus EUP MRSA002
In short: as §1

[14] = system: Enterococcus faecium ATCC700221; conditions: Enterococcus faecium ATCC700221
In short: as §1

[15] = system: Staphylococcus epidermidis NRS7; conditions: Staphylococcus epidermidis NRS7
In short: as §1

[16] = system: Staphylococcus aureus EUP SAU040; conditions: EUPSAU040, Staphylococcus aureus EUP SAU040
In short: as §1

Bacillus cereus NCTC6349 = conditions: Bacillus cereus NCTC6349
In short: as §1

[17] = system: Staphylococcus aureus AUR59 7005; conditions: AUR597005, Staphylococcus aureus AUR59 7005
In short: as §1

[18] = system: Staphylococcus aureus NRS1 (ATCC700699); conditions: Staphylococcus aureus NRS1 (ATCC700699)
In short: as §1

Question: Which results are given for `Cc1ccc(Cl)cc1-c1cc(-c2nnn[nH]2)sc1-c1cc(Cl)ccc1C` [DNM0508, 5-(4,5-Bis(5-chloro-2-methylphenyl)thiophen-2-yl)-1H-tetrazole]?
Answer: MIC ([1]; read-out: 100% inhibition): 1 µg/mL (≈ 2.49 µM); MIC50 ([1]; read-out: MIC50 (50%)): 1 µg/mL (≈ 2.49 µM); MIC80 ([1]; read-out: MIC80 (80%)): 1 µg/mL (≈ 2.49 µM); MIC ([2]; read-out: 100% inhibition): 1 µg/mL (≈ 2.49 µM); MIC50 ([2]; read-out: MIC50 (50%)): 1 µg/mL (≈ 2.49 µM); MIC80 ([2]; read-out: MIC80 (80%)): 1 µg/mL (≈ 2.49 µM); MIC ([3]; read-out: 100% inhibition): 1 µg/mL (≈ 2.49 µM); MIC50 ([3]; read-out: MIC50 (50%)): 1 µg/mL (≈ 2.49 µM); MIC80 ([3]; read-out: MIC80 (80%)): 1 µg/mL (≈ 2.49 µM); MIC ([4]; read-out: 100% inhibition): 2 µg/mL (≈ 4.98 µM); MIC50 ([4]; read-out: MIC50 (50%)): 2 µg/mL (≈ 4.98 µM); MIC80 ([4]; read-out: MIC80 (80%)): 2 µg/mL (≈ 4.98 µM); MIC ([5]; read-out: 100% inhibition): 1 µg/mL (≈ 2.49 µM); MIC50 ([5]; read-out: MIC50 (50%)): 1 µg/mL (≈ 2.49 µM); MIC80 ([5]; read-out: MIC80 (80%)): 1 µg/mL (≈ 2.49 µM); MIC ([6]; read-out: 100% inhibition): 1 µg/mL (≈ 2.49 µM); MIC50 ([6]; read-out: MIC50 (50%)): 1 µg/mL (≈ 2.49 µM); MIC80 ([6]; read-out: MIC80 (80%)): 1 µg/mL (≈ 2.49 µM); MIC ([7]; read-out: 100% inhibition): 1 µg/mL (≈ 2.49 µM); MIC50 ([7]; read-out: MIC50 (50%)): 1 µg/mL (≈ 2.49 µM); MIC80 ([7]; read-out: MIC80 (80%)): 1 µg/mL (≈ 2.49 µM); MIC ([8]; read-out: 100% inhibition): 1 µg/mL (≈ 2.49 µM); MIC50 ([8]; read-out: MIC50 (50%)): 1 µg/mL (≈ 2.49 µM); MIC80 ([8]; read-out: MIC80 (80%)): 1 µg/mL (≈ 2.49 µM); MIC ([9]; read-out: 100% inhibition): 8 µg/mL (≈ 19.9 µM); MIC50 ([9]; read-out: MIC50 (50%)): 4 µg/mL (≈ 9.97 µM); MIC80 ([9]; read-out: MIC80 (80%)): 8 µg/mL (≈ 19.9 µM); MIC ([10]; read-out: 100% inhibition): 1 µg/mL (≈ 2.49 µM); MIC50 ([10]; read-out: MIC50 (50%)): 1 µg/mL (≈ 2.49 µM); MIC80 ([10]; read-out: MIC80 (80%)): 1 µg/mL (≈ 2.49 µM); MIC ([11]; read-out: 100% inhibition): 2 µg/mL (≈ 4.98 µM); MIC50 ([11]; read-out: MIC50 (50%)): 2 µg/mL (≈ 4.98 µM); MIC80 ([11]; read-out: MIC80 (80%)): 2 µg/mL (≈ 4.98 µM); MIC ([12]; read-out: 100% inhibition): 1 µg/mL (≈ 2.49 µM); MIC50 ([12]; read-out: MIC50 (50%)): 0.5 µg/mL (≈ 1.25 µM); MIC80 ([12]; read-out: MIC80 (80%)): 1 µg/mL (≈ 2.49 µM); MIC ([13]; read-out: 100% inhibition): 1 µg/mL (≈ 2.49 µM); MIC50 ([13]; read-out: MIC50 (50%)): 0.5 µg/mL (≈ 1.25 µM); MIC80 ([13]; read-out: MIC80 (80%)): 1 µg/mL (≈ 2.49 µM); MIC ([14]; read-out: 100% inhibition): 1 µg/mL (≈ 2.49 µM); MIC50 ([14]; read-out: MIC50 (50%)): 1 µg/mL (≈ 2.49 µM); MIC80 ([14]; read-out: MIC80 (80%)): 1 µg/mL (≈ 2.49 µM); MIC ([15]; read-out: 100% inhibition): 1 µg/mL (≈ 2.49 µM); MIC50 ([15]; read-out: MIC50 (50%)): 0.5 µg/mL (≈ 1.25 µM); MIC80 ([15]; read-out: MIC80 (80%)): 0.5 µg/mL (≈ 1.25 µM); MIC ([16]; read-out: 100% inhibition): 1 µg/mL (≈ 2.49 µM); MIC50 ([16]; read-out: MIC50 (50%)): 1 µg/mL (≈ 2.49 µM); MIC80 ([16]; read-out: MIC80 (80%)): 1 µg/mL (≈ 2.49 µM); MIC (Bacillus cereus NCTC6349; read-out: 100% inhibition): 0.5 µg/mL (≈ 1.25 µM); MIC50 (Bacillus cereus NCTC6349; read-out: MIC50 (50%)): 0.5 µg/mL (≈ 1.25 µM); MIC80 (Bacillus cereus NCTC6349; read-out: MIC80 (80%)): 0.5 µg/mL (≈ 1.25 µM); MIC ([17]; read-out: 100% inhibition): 1 µg/mL (≈ 2.49 µM); MIC50 ([17]; read-out: MIC50 (50%)): 1 µg/mL (≈ 2.49 µM); MIC80 ([17]; read-out: MIC80 (80%)): 1 µg/mL (≈ 2.49 µM); MIC ([18]; read-out: 100% inhibition): 1 µg/mL (≈ 2.49 µM); MIC50 ([18]; read-out: MIC50 (50%)): 0.5 µg/mL (≈ 1.25 µM); MIC80 ([18]; read-out: MIC80 (80%)): 1 µg/mL (≈ 2.49 µM)
